Assay results taken from patent publication US5206435A, “4-amino-2-cyclopentene-1-methanol” (priority 1988, dated 1993).
Entries after “also recorded” stand apart in the source; their conditions may differ.

Experiments:
HBV [1] = test: anti-HBV activity in the human HBV producer cell line of HepG2, 2.2.15; format: cell-based, hepatitis B virus; conditions: at 100 μM; HepG2, 2.2.15 cells
Protocol: The human HBV producer cell line of HepG2,2.2.15, described and characterised by Sells et al., PNAS 84: 1005, 1987 and J.Virol.
To test compounds for anti-HBV activity, monolayer cultures were treated with the test compound: 50-200 μM for ten days. Supernatant media containing extracellular virion DNA (Dane particles) were harvested on days three, six and ten, treated with proteinase K (1 mg/mL) and sodium dodecyl sulfate (1%), and incubated at 50° C. for one hour. DNA was extracted with equal volumes of phenol followed by chloroform and then precipitated by ammonium acetate and propanol. The DNA precipitate was dissolved and collected on nitrocellulose using the procedure of Schleicher and Schuell (S&S, 10 Optical Ave., Keene, N.H. 03431, Publication #700, 1987), and treated as described by Southern, J.Mol.Biol., 98, 503, 1975. […] After precipitation by ammonium acetate and propanol, the intracellular DNA precipitate was dissolved, cut by restriction endonuclease, Hind III, applied to agarose gel and then treated as described by Southern to determine the quantity of replicative intermediate forms. The antiviral effect of the drug was determined by measuring at least a 100-fold reduction of the amount of Dane particles extruded into the culture medium and a similar decrease in the intracellular replicative intermediates.

HIV [2] = test: activity against HIV infections (general statement)
HBV [3] = test: activity against HBV infections (general statement); design: species or system hepatitis B virus
[4] = penetration of the blood-brain barrier upon administration; format: in vivo
HIV [5] = test: anti-HIV activity in MT4 cells; format: cell-based; conditions: Human immunodeficiency virus 1, average of 10 determinations
Protocol: (1S,4R)-cis-4-[2-amino-6-(cyclopropylamino)-9H-purin-9-yl]-2-cyclopentene-1-methanol was tested for anti-HIV activity in MT4 cells according to the method described by Averett, D. R., J. Virol.

[6] = tested on: bone marrow progenitor cells; test: toxicity against bone marrow progenitor cells; format: cell-based; conditions: compared with 3'-azido-3'-deoxythymidine (zidovudine)

IC50 (HIV [5]) [µM] | SMILES | anti-HBV activity (HBV [1]) | activity against HIV infections (HIV [2]) | activity against HBV infections (HBV [3]) | blood-brain barrier penetration [4] | levels of the compounds or active metabolites in the central nervous system [4] | toxicity against bone marrow progenitor cells [6]
– | CN(c1nc(N)nc2c1ncn2[C@H]1C=C[C@@H](CO)C1)C1CC1 [Compound 3, (1S,4R)-cis-4-[2-amino-6-(N-cyclopropyl-N-methylamino)-9H-purin-9-yl]-2-cyclopentene-1-methanol] | potent anti-HBV activity | especially potent activity | especially potent activity | capable of penetrating the blood-brain barrier | high levels | –
4 ± 1.4 | Nc1nc(NC2CC2)c2ncn([C@H]3C=C[C@@H](CO)C3)c2n1 [Compound 1, (1S,4R)-cis-4-[2-amino-6-(cyclopropylamino)-9H-purin-9-yl]-2-cyclopentene-1-methanol] | – | especially potent activity; also recorded: exceptionally potent activity | especially potent activity; also recorded: exceptionally potent activity | capable of penetrating the blood-brain barrier | high levels | significantly lower toxicity
